# Reference: patent publication US20240002388A1, “PYRIMIDINONE COMPOUNDS AND USES THEREOF” (HUTCHISON MEDIPHARMA LIMITED, priority 2020, published 2024)
# System: U937 cell line (human histiocytic lymphoma cell line)
# Assay: U937 cell viability assay (TNF-α + Z-VAD-FMK induced necroptosis)
# Format: cell-based
# Conditions: Homo sapiens, U-937; U937 cells, hTNF-α 0.1 μg/mL + Z-VAD-FMK 50 μM, 20 hours, CellTiter-Glo
# Procedure, shortened: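 U937 cells (1.75×10^4/well, 1% FBS RPMI 1640) were preincubated 1 h with compound (0.0005–1.0 μM, 0.3% DMSO) and 50 μM Z-VAD-FMK, then stimulated with 0.1 μg/mL TNF-α for 20 h at 37 °C. Viability was read by CellTiter-Glo luminescence. Inhibition was normalised between TNF-α+Z-VAD and unstimulated wells, and IC50 was fitted.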
smiles,measurement,value
CC[C@@H](C)n1cncc(-c2ccc(C3(NC(=O)c4ncc5cnn(C(C)C)c5n4)CC3)cc2)c1=O [Compound 44],IC50,2 nM
